# Source: US20060205692A1, “1,1-and 1,2-Bisphosphonates as apoliprotein e modulators” (priority 2002, published 2006)
# Tested on: ApoE
# Assay: apoE secretion by PMA-differentiated THP-1 cells, apoE quantified by ELISA
# Format: cell-based, human
# Details: 3 days; for percent change in apoE secretion versus control at 25 µM / percent change in apoE secretion versus control at 50 µM / percent change in apoE secretion versus control at 100 µM: Homo sapiens, THP-1, 72 h
# Description: The bisphosphonate compounds of the invention can modulate (increase or decrease) apoE levels in plasma and in tissues. The activities of the compounds can be determined in an in vitro cell assay comprising determining the modulatory effect of the test compound on the secretion of apoE by an apoE secreting cell line (e.g., a monocyte-macrophage cell line such as the THP-1 cell line, a liver derived cell line such as the HepG2 cell line, an intestinal derived cell line such as the CaCo2 cell line or a brain derived cell line such as the astrocytoma CCF-STTG1 cell line).
# THP-1 cell line (ATCC TIB-202) are cultured in RPMI 1640 (with 2 mM of L-glutamine and 2 g/l of glucose, Invitrogen) supplemented with 2 g/l of sodium hydrogen carbonate (Fluka), 10 U/ml of penicillin, 10 μg/ml of streptomycin (Penicillin-Streptomycin, Invitrogen), 20 μM of 2-mercaptoethanol (Fluka) and 10% FCS (Amimed). Cells are incubated at 37° C. and 5% CO2.
# Cells are seeded in 24 well tissue culture plates (Falcon), 2×10^5 cells in 500 μl of culture medium per well or 6 well plates for RT-PCR purpose, 1×10^6 cells in 2.5 ml of medium. PMA (Phorbol 12-myristate 13-acetate, Alexis), (stock in DMSO (Fluka) at 1 mg/ml) and other compounds are diluted in ethanol and added to the cells at an ethanol final concentration not exceeding 1%. Same volume of ethanol is added in controls. Plates are incubated for 3 days at 37° C. and 5% CO2 to allow cell differentiation and apoE secretion.
# Medium contained in the wells is harvested and centrifuged 5 min at 1200 rpm. Supernatants are store at −20° C. until apoE quantification. The cell pellets are resuspended in PBS and counted with a ZI Coulter Counter. After a wash with PBS, adherent cells in the well bottoms are detached with trypsin-EDTA solution 10× (Invitrogen) diluted in PBS. The reaction is stopped with the addition of culture medium and the detached cells are counted.
# ApoE was quantified by ELISA. 96 well plates (Costar) are coated with 5% of gelatine (from porcine skin, Fluka) in carbonate-bicarbonate buffer (Sigma) for 1 hour at 37° C. After removing the coating solution, 100 μl of THP-1 supernatant are added per well, diluted 5 times in buffer (PBS, 1% Top-Block (Juro), 0.1% Tween 20 (Fluka)). The incubation last 1 hour at 37° C., then the wells are washed 3 times with 200 μl of buffer. Plates are incubated for 1 hour at 37° C. with continuous stirring with the primary antibody (goat anti-human apoE IgG, Calbiochem) at a 10000-time dilution in buffer, 100 μl per well. After 3 washes, plates are incubated with the secondary antibody (rabbit anti-goat-IgG peroxidase conjugated, Sigma) diluted 5000 times, 100 μl per well, at 37° C. with shaking. Then the wells are washed 5 more times and the detection is achieved by adding 100 μl per well of o-phenylenediamine dihydrochloride (Sigma) and incubated for 15-20 minutes with shaking at room temperature. When the appropriated colour is reached, the reaction is stopped by adding 50 μl per well of 3 M sulfuric acid (Fluka) with shaking for 1 minute at room temperature. The absorbance is read at 492 nm versus 620 nm with a microplate photometer (Anthos Reader 2001).
Structure (SMILES),"% ApoE Change (compound 25 μM, 1.25 nM PMA) [%]","% ApoE Change (compound 25 μM, 2.5 nM PMA) [%]","% ApoE Change (compound 50 μM, 1.25 nM PMA) [%]","% ApoE Change (compound 50 μM, 2.5 nM PMA) [%]","% ApoE Change (compound 100 μM, 1.25 nM PMA) [%]","% ApoE Change (compound 100 μM, 2.5 nM PMA) [%]","percent change in apoE secretion versus control at 25 µM (compound 25 μM, 1.25 nM PMA) [%]","percent change in apoE secretion versus control at 25 µM (compound 25 μM, 2.5 nM PMA) [%]",also measured
"CCOP(=O)(OCC)C(c1ccc(OCCN2C(=O)CCC2=O)cc1)P(=O)(OCC)OCC [Tetraethyl 1-[4-(2-N-succinimido-ethoxy)-phenyl]-methylidene-1,1-bisphosphonate]",−51,30,53,70,123,132,–,–,–
"CCOP(=O)(OCC)C(c1ccc(OCCCc2cccnc2)cc1)P(=O)(OCC)OCC [Tetraethyl 1-[4-(3-pyridin-3-yl-propoxy)-phenyl]-methylidene-1,1-bisphosphonate]",63,136,103,188,337,331,–,–,–
"CCOP(=O)(OCC)C(c1ccc(OCCN(CCC#N)c2ccccc2)cc1)P(=O)(OCC)OCC [Tetraethyl 1-(4-{2-[(2-cyano-ethyl)-phenyl-amino]-ethoxy}-phenyl)-methylidene-1,1-bisphosphonate]",–,–,–,–,–,–,276,209,"percent change in apoE secretion versus control at 50 µM (compound 50 μM, 1.25 nM PMA): 678%; percent change in apoE secretion versus control at 50 µM (compound 50 μM, 2.5 nM PMA): 311%; percent change in apoE secretion versus control at 100 µM (compound 100 μM, 2.5 nM PMA): 499%"
"CCOP(=O)(OCC)C(c1ccc(OCCN2CCCC2)cc1)P(=O)(OCC)OCC [Tetraethyl 1-[4-(2-N-pyrrolidino-ethoxy)-phenyl]-methylidene-1,1-bisphosphonate]",−5,2,2,7,56,32,–,–,–
"CCOP(=O)(OCC)C(c1ccc(OCCCO)cc1)P(=O)(OCC)OCC [Tetraethyl 1-[4(3-hydroxy-propoxy)-phenyl]-methylidene-1,1-bisphosphonate]",–,–,–,–,–,–,-27,-15,"percent change in apoE secretion versus control at 50 µM (compound 50 μM, 1.25 nM PMA): -21%; percent change in apoE secretion versus control at 50 µM (compound 50 μM, 2.5 nM PMA): -16%; percent change in apoE secretion versus control at 100 µM (compound 100 μM, 1.25 nM PMA): 20%; percent change in apoE secretion versus control at 100 µM (compound 100 μM, 2.5 nM PMA): 0%"
"CCOP(=O)(OCC)C(c1ccc(OCCN2CCOCC2)cc1)P(=O)(OCC)OCC [Tetraethyl 1-[4-(2-N-morpholino-ethoxy)-phenyl]-methylidene-1,1-bisphosphonate]",−17,−20,−8,−27,43,−3,–,–,–
"CCOP(=O)(OCC)C(c1ccc(OCCCN(C)c2ccccn2)cc1)P(=O)(OCC)OCC [Tetraethyl 1-{4-[3-(methyl-pyridin-2-yl-amino)-propoxy]-phenyl}-methylidene-1,1-bisphosphonate]",–,–,–,–,–,–,375,557,–
"CCOP(=O)(OCC)C(c1ccc(OCc2ccc(C#N)cc2)cc1)P(=O)(OCC)OCC [Tetraethyl 1-[4-(4-cyano-benzyloxy)-phenyl]-methylidene-1,1-bisphosphonate]",91,134,192,225,447,328,–,–,–
"CC(C)OP(=O)(OC(C)C)C(c1ccc(O)cc1)P(=O)(OC(C)C)OC(C)C [Tetraisopropyl 1-(4-hydroxy-phenyl)-methylidene-1,1-bisphosphonate]",–,–,–,–,–,–,290,52,"percent change in apoE secretion versus control at 50 µM (compound 50 μM, 1.25 nM PMA): 399%; percent change in apoE secretion versus control at 50 µM (compound 50 μM, 2.5 nM PMA): 35%; percent change in apoE secretion versus control at 100 µM (compound 100 μM, 1.25 nM PMA): 488%; percent change in apoE secretion versus control at 100 µM (compound 100 μM, 2.5 nM PMA): 73%"
"COP(=O)(OC)C(c1ccc(O)cc1)P(=O)(OC)OC [Tetramethyl 1-(4-hydroxy-phenyl)methylidene-1,1-bisphosphonate]",−7,−17,−27,−25,−19,−10,–,–,–
"CCOP(=O)(OCC)C(c1ccc(OC/C=C(\C)CC/C=C(\C)CCC=C(C)C)cc1)P(=O)(OCC)OCC [Tetraethyl 1-[4-(trans, trans-3,7,11-trimethyl-dodeca-2,6,10-trienyloxy)-phenyl]-methylidene-1,1-bisphosphonate]",–,–,–,–,–,–,–,–,"% ApoE Change (compound 2.5 μM, 1.25 nM PMA): 14%; % ApoE Change (compound 2.5 μM, 2.5 nM PMA): 27%; % ApoE Change (compound 5.0 μM, 1.25 nM PMA): 46%; % ApoE Change (compound 5.0 μM, 2.5 nM PMA): 47%; % ApoE Change (compound 10 μM, 1.25 nM PMA): 31%; % ApoE Change (compound 10 μM, 2.5 nM PMA): 40%"
